# Measured values as given in patent US10344026B2, “Compositions and methods of targeting mutant K-ras” (NANTBIO, INC., priority 2017, dated 2019).
# Tests used:
# Format in all cases: cell-based
# [1] = test system: phospho-Akt in HCC827 (Wild-type); assay: In-Cell Western phospho-Akt, HCC827; conditions: Homo sapiens, 1 h; HCC827, one hour treatment; read-out: In-Cell Western HCC827 (Wild-type) Akt (P)
# In short: (§1)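 One-hour compound treatment of cells plated a day earlier, 0.5% DMSO. Phospho-signal detected by in-cell immunofluorescence imaging; EC50 calculated.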
# [2] = test system: HCC827 (K-Ras wild type cell line); assay: Viability assay (CellTiterBlue, 72 hr) HCC827; conditions: Homo sapiens, GI50, CellTiterBlue, HCC827 K-Ras wild-type
# In short: (§2)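 Cells were seeded at 1000 per well and allowed 18 hr at 37 °C in CO2 before compound addition (final DMSO 0.5%). After 72 hr exposure, CellTiterBlue was added for 3 hr and fluorescence read at Ex550/Em590. GI50 values were calculated against DMSO (100%) and 100 uM tamoxifen (0%) controls.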
# [3] = test system: phospho-ERK in Panc10.05 (G12D); assay: In-Cell Western phospho-ERK, Panc10.05; conditions: Homo sapiens, Panc1005, 1 h; Panc10.05, one hour treatment; read-out: In-Cell Western Panc10.05 (G12D) Erk (P)
# In short: as §1
# [4] = biological target: T1, wild type K-Ras (Homo sapiens, UniProt P01116); assay: G-LISA Ras activation, 293H cells transfected with Ras wild-type, EGF stimulated; conditions: compound 1 hour, then 100 ng/ml EGF 2 minutes
# T1 construct: expressed in transfected cells; host or cells: 293H cells
# In short: (§3)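 Cells: 293H, Ras plasmid transfection (5 μg). Cpd 3.125-25 μM, 1 h; WT cells + EGF 100 ng/ml, 2 min. Lysed on ice; active Ras by G-LISA.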
# [5] = test system: phospho-Akt in A375 (Wild-type); assay: In-Cell Western phospho-Akt, A375; conditions: Homo sapiens, A-375, 1 h; A375, one hour treatment; read-out: In-Cell Western A375 (Wild-type) Akt (P)
# In short: as §1
# [6] = test system: phospho-ERK in A375 (Wild-type); assay: In-Cell Western phospho-ERK, A375; conditions: Homo sapiens, A-375, 1 h; A375, one hour treatment; read-out: In-Cell Western A375 (Wild-type) Erk (P)
# In short: as §1
# [7] = test system: Panc10.05-G12D; assay: Viability assay (CellTiterBlue, 72 hr) Panc10.05; conditions: Homo sapiens, Panc1005, GI50, CellTiterBlue, Panc10.05 K-Ras G12D, read-out: 72 hr Cell Viability Panc10.05 (G12D)
# In short: as §2
# [8] = test system: A375 (K-Ras wild type cell line); assay: Viability assay (CellTiterBlue, 72 hr) A375; conditions: Homo sapiens, A-375, GI50, CellTiterBlue
# In short: as §2
# [9] = test system: U87-MG (K-Ras wild type cell line); assay: Viability assay (CellTiterBlue, 72 hr) U87-MG; conditions: Homo sapiens, U-87 MG, GI50, CellTiterBlue, U87-MG K-Ras wild-type
# In short: as §2
# [10] = test system: Panc1-G12D; assay: Viability assay (CellTiterBlue, 72 hr) Panc1; conditions: Homo sapiens, PANC-1, GI50, CellTiterBlue, Panc1 K-Ras G12D, read-out: 72 hr Cell Viability Panc1 (G12D)
# In short: as §2
# [11] = test system: phospho-Akt in Panc1 (G12D); assay: In-Cell Western phospho-Akt, Panc1; conditions: Homo sapiens, PANC-1, 1 h; Panc1, one hour treatment; read-out: In-Cell Western Panc1 (G12D) Akt (P)
# In short: as §1
# [12] = biological target: T2, K-Ras G12D (Homo sapiens, UniProt P01116, G12D); assay: G-LISA Ras activation, 293H cells transfected with G12D mutant; conditions: compound 1 hour
# T2 construct: expressed in transfected cells; host or cells: 293H cells
# In short: as §3
# [13] = test system: HCT116-G31D; assay: Viability assay (CellTiterBlue, 72 hr) HCT116; conditions: Homo sapiens, HCT-116, GI50, CellTiterBlue, HCT116 K-Ras G13D, read-out: 72 hr Cell Viability HCT116 (G13D)
# In short: as §2
# [14] = test system: phospho-Akt in Panc10.05 (G12D); assay: In-Cell Western phospho-Akt, Panc10.05; conditions: Homo sapiens, Panc1005, 1 h; Panc10.05, one hour treatment; read-out: In-Cell Western Panc10.05 (G12D) Akt (P)
# In short: as §1
# [15] = test system: phospho-ERK in Panc1 (G12D); assay: In-Cell Western phospho-ERK, Panc1; conditions: Homo sapiens, PANC-1, 1 h; Panc1, one hour treatment; read-out: In-Cell Western Panc1 (G12D) Erk (P)
# In short: as §1
# [16] = test system: Ishikawa (K-Ras wild type cell line); assay: Viability assay (CellTiterBlue, 72 hr) Ishikawa; conditions: Homo sapiens, GI50, CellTiterBlue, Ishikawa K-Ras wild-type
# In short: as §2
# [17] = test system: phospho-ERK in HCC827 (Wild-type); assay: In-Cell Western phospho-ERK, HCC827; conditions: Homo sapiens, 1 h; HCC827, one hour treatment; read-out: In-Cell Western HCC827 (Wild-type) Erk (P)
# In short: as §1
# T2 sequence (P01116 whole entry G12D): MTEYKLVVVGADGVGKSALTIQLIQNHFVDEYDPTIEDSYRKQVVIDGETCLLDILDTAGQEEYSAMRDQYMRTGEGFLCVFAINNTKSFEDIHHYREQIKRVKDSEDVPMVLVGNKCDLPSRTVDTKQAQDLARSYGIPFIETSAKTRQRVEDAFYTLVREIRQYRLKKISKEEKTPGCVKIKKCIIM
# T1 sequence (P01116 whole entry): as the sequence (P01116 whole entry G12D) above, with D12G counted along it
Compound,EC50 [1],IC50 [2],EC50 [3],IC50 [4],EC50 [5],EC50 [6],IC50 [7],IC50 [8],IC50 [9],IC50 [10],EC50 [11],IC50 [12],IC50 [13],EC50 [14],EC50 [15],IC50 [16],EC50 [17]
"CCn1nc(C)c(C(=O)Nc2nc(-c3ccc4c(c3)CCC(=O)N4CCOC)cs2)c1C [Compound 119, 1-ethyl-N-(4-(1-(2-methoxyethyl)-2-oxo-1,2,3,4-tetrahydroquinolin-6-yl)thiazol-2-yl)-3,5-dimethyl-1H-pyrazole-4-carboxamide]",> 25 µM,2 µM,0.759 µM,5.4 µM,12 µM,8 µM,0.71 µM,8 µM,6 µM,2 µM,19 µM,2.6 µM,16 µM,1.5 µM,3 µM,3 µM,1.1 µM
"Cc1nn(Cc2ccccc2)c(C)c1C(=O)Nc1nc(-c2ccc3c(c2)CCC(=O)N3)cs1 [Compound 56, 1-benzyl-3,5-dimethyl-N-(4-(2-oxo-1,2,3,4-tetrahydroquinolin-6-yl)thiazol-2-yl)-1H-pyrazole-4-carboxamide]",> 25 µM,7 µM,3 µM,19.2 µM,> 25 µM,16 µM,7 µM,4 µM,12 µM,9 µM,27 µM,6.6 µM,6 µM,21 µM,3 µM,7 µM,9 µM
"COCCN1C(=O)CCc2cc(-c3csc(NC(=O)c4oc(C(C)C)nc4C)n3)ccc21 [Compound 111, 2-isopropyl-NA-(4-(1-(2-methoxyethyl)-2-oxo-1,2,3,4-tetrahydroquinolin-6-yl)thiazol-2-yl)-4-methyloxazole-5-carboxamide]",> 25 µM,2 µM,0.767 µM,3.9 µM,> 25 µM,12 µM,0.852 µM,7 µM,7 µM,2 µM,16 µM,2.5 µM,24 µM,2 µM,1.4 µM,4 µM,1.6 µM
"COCCN1C(=O)CCc2cc(-c3csc(NC(=O)c4c(C)nn(C)c4C)n3)ccc21 [Compound 120, N-(4-(1-(2-methoxyethyl)-2-oxo-1,2,3,4-tetrahydroquinoinolin-6-yl)thiazol-2-yl)-1,3,5-trimethyl-1H-pyrazole-4-carboxamide]",> 25 µM,4 µM,1.2 µM,11.9 µM,> 25 µM,24 µM,0.802 µM,20 µM,13 µM,4 µM,26 µM,3.4 µM,> 25 µM,5 µM,5 µM,10 µM,3 µM
"Cc1nn(-c2ccc(F)cc2)c(C)c1C(=O)Nc1nc(-c2ccc3c(c2)CCC(=O)N3)cs1 [Compound 54, 1-(4-fluorophenyl)-3,5-dimethyl-N-(4-(2-oxo-1,2,3,4-tetrahydroquinolin-6-yl)thiazol-2-yl)-1-pyrazole-4-carboxamide]",> 25 µM,13 µM,3 µM,10.6 µM,> 25 µM,> 25 µM,6 µM,26 µM,15 µM,15 µM,> 25 µM,7.9 µM,23 µM,> 25 µM,> 25 µM,> 25 µM,> 25 µM
